Assay results reported in PubChem BioAssay (NCI).
Where “and” joins values, the source holds several entries; their conditions need not be identical. Identical values can stand only once.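 Interpolation was linear, between the two tested concentrations surrounding the appropriate level; five concentrations were tested over 48 hours in 96-well plates. At the GI50, growth is halved. TGI: concentration producing complete growth inhibition.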

How the values were obtained:
Assay in all cases: growth of human tumour cells (NCI), 48 h
HL-60(TB) leukemia = test system: HL-60(TB) leukemia
UO-31 renal = test system: UO-31 renal
HOP-62 NSCLC = test system: HOP-62 NSCLC
SNB-75 CNS = test system: SNB-75 CNS
SR leukemia = test system: SR leukemia
DLD-1 colon = test system: DLD-1 colon
CCRF-CEM leukemia = test system: CCRF-CEM leukemia
DMS 114 small cell lung = test system: DMS 114 small cell lung
EKVX NSCLC = test system: EKVX NSCLC
HS 578T breast = test system: HS 578T breast

With `CC1=C(Cl)C=CP(=O)(OC(C)C)C1` (centres undefined) the TGI (HL-60(TB) leukemia) was over 100 µM, the TGI (UO-31 renal) was over 100 µM and the TGI (HOP-62 NSCLC) was over 100 µM. It also gave a TGI (SNB-75 CNS) of 47.3 µM, a TGI (SR leukemia) of over 100 µM and a TGI (DLD-1 colon) of over 100 µM. For the same molecule, the TGI (CCRF-CEM leukemia) was over 100 µM, the TGI (DMS 114 small cell lung) was over 100 µM and the TGI (EKVX NSCLC) was over 100 µM.
`Oc1ccc(CCNCc2cc3c(cc2Br)OCO3)cc1` showed a TGI (HL-60(TB) leukemia) of 84.4 µM, a TGI (UO-31 renal) of over 100 µM and a TGI (HOP-62 NSCLC) of over 100 µM. It also gave a TGI (SNB-75 CNS) of 84.8 µM, a TGI (HS 578T breast) of over 100 µM and a TGI (SR leukemia) of over 100 µM. For the same molecule, the TGI (CCRF-CEM leukemia) was over 100 µM and the TGI (EKVX NSCLC) was over 100 µM.
`CCOC(=O)c1c(C)nc2c(c1N)CC(=O)N2CCc1ccccc1` showed a GI50 (HL-60(TB) leukemia) of 0.374 µM, a TGI (HL-60(TB) leukemia) of 13.1 µM and a GI50 (UO-31 renal) of 1.03 µM. It also gave a TGI (UO-31 renal) of 21.9 µM, a GI50 (HOP-62 NSCLC) of 0.472 µM and a TGI (HOP-62 NSCLC) of 14.7 µM. It also gave a GI50 (SNB-75 CNS) of 1.37 µM, a TGI (SNB-75 CNS) of 18.1 µM and a GI50 (HS 578T breast) of 12.4 µM. For the same molecule, the TGI (HS 578T breast) was 62.3 µM, the GI50 (SR leukemia) was 0.444 µM and the TGI (SR leukemia) was 28.1 µM. It also gave a GI50 (CCRF-CEM leukemia) of 0.389 µM, a TGI (CCRF-CEM leukemia) of 14.4 µM and a GI50 (EKVX NSCLC) of 6.06 µM. It also gave a TGI (EKVX NSCLC) of 68.8 µM.
For `O=C1C(=O)c2ccccc2C(O)=C1CCCc1ccc(C2CCCCCC2)cc1`, the GI50 (HL-60(TB) leukemia) was 0.698 µM, the TGI (HL-60(TB) leukemia) was 11.1 µM and the GI50 (UO-31 renal) was 0.612 µM. It also gave a TGI (UO-31 renal) of 8.94 µM, a GI50 (HOP-62 NSCLC) of 1.27 µM and a TGI (HOP-62 NSCLC) of 27.3 µM. For the same molecule, the GI50 (SNB-75 CNS) was 2.5 µM, the TGI (SNB-75 CNS) was 52.2 µM and the GI50 (HS 578T breast) was 4.84 µM. It also gave a TGI (HS 578T breast) of 57.8 µM, a GI50 (SR leukemia) of 1.77 µM and a TGI (SR leukemia) of over 100 µM. It also gave a GI50 (CCRF-CEM leukemia) of 1.16 µM, a TGI (CCRF-CEM leukemia) of over 100 µM and a GI50 (EKVX NSCLC) of 0.939 µM. For the same molecule, the TGI (EKVX NSCLC) was 50.6 µM.
`Cc1ccc(-c2cc(=O)c3cc(C)c(C)c(C(=O)O)c3o2)cc1N` gave a TGI (UO-31 renal) of over 100 µM, a TGI (SNB-75 CNS) of over 100 µM and a TGI (DLD-1 colon) of over 100 µM. For the same molecule, the TGI (CCRF-CEM leukemia) was over 100 µM, the TGI (DMS 114 small cell lung) was over 100 µM and the TGI (EKVX NSCLC) was over 100 µM.
`CCCCNC(=O)c1cc(NCc2cc(O)ccc2O)ccc1O` showed a GI50 (HL-60(TB) leukemia) of 2.06 µM, a TGI (HL-60(TB) leukemia) of 6.2 µM and a GI50 (UO-31 renal) of 2.82 µM. It also gave a TGI (UO-31 renal) of 12.1 µM, a GI50 (HOP-62 NSCLC) of 71.8 µM and a TGI (HOP-62 NSCLC) of over 100 µM. For the same molecule, the GI50 (SNB-75 CNS) was 18.5 µM, the TGI (SNB-75 CNS) was over 100 µM and the GI50 (HS 578T breast) was 24.8 µM. It also gave a TGI (HS 578T breast) of over 100 µM, a GI50 (SR leukemia) of 5.35 µM and a TGI (SR leukemia) of over 100 µM. It also gave a GI50 (CCRF-CEM leukemia) of 0.873 µM, a TGI (CCRF-CEM leukemia) of 12.8 µM and a GI50 (EKVX NSCLC) of 13.4 µM. It also gave a TGI (EKVX NSCLC) of 28.1 µM.
In the case of `COc1cc(N2CCN(C(C)C)CC2)ccc1Nc1nc(Nc2cccc(F)c2C(=O)O)c2cc[nH]c2n1`, the GI50 (HL-60(TB) leukemia) is reported as over 25 µM, the TGI (HL-60(TB) leukemia) is reported as over 25 µM and the GI50 (UO-31 renal) is reported as over 25 µM. It also gave a TGI (UO-31 renal) of over 25 µM, a GI50 (HOP-62 NSCLC) of over 25 µM and a TGI (HOP-62 NSCLC) of over 25 µM. It also gave a GI50 (SNB-75 CNS) of over 25 µM, a TGI (SNB-75 CNS) of over 25 µM and a GI50 (HS 578T breast) of over 25 µM. For the same molecule, the TGI (HS 578T breast) was over 25 µM, the GI50 (SR leukemia) was over 25 µM and the TGI (SR leukemia) was over 25 µM. For the same molecule, the GI50 (CCRF-CEM leukemia) was over 25 µM, the TGI (CCRF-CEM leukemia) was over 25 µM and the GI50 (EKVX NSCLC) was over 25 µM. The TGI (EKVX NSCLC) was over 25 µM.
For `COc1cc2ncnc(Nc3ccc4c(cnn4Cc4ccccc4)c3)c2cc1OC`, the GI50 (HL-60(TB) leukemia) was 12.5 µM, the TGI (HL-60(TB) leukemia) was over 21 µM and the GI50 (UO-31 renal) was 3.96 µM. It also gave a TGI (UO-31 renal) of over 25 µM, a GI50 (HOP-62 NSCLC) of over 25 µM and a TGI (HOP-62 NSCLC) of over 25 µM. The GI50 (SNB-75 CNS) was over 25 µM, the TGI (SNB-75 CNS) was over 25 µM and the GI50 (HS 578T breast) was over 21 µM. For the same molecule, the TGI (HS 578T breast) was over 25 µM, the GI50 (SR leukemia) was 24.9 µM and the TGI (SR leukemia) was over 25 µM. For the same molecule, the GI50 (CCRF-CEM leukemia) was over 18.1 µM, the TGI (CCRF-CEM leukemia) was over 25 µM and the GI50 (EKVX NSCLC) was 0.0796 µM. The TGI (EKVX NSCLC) was over 25 µM.
In the case of `CSc1nc(NC2OC(COC(C)=O)C(OC(C)=O)C(OC(C)=O)C2OC(C)=O)c(-c2csc(N)n2)c(=O)n1C` (centres undefined), the TGI (HL-60(TB) leukemia) is reported as over 100 µM, the TGI (UO-31 renal) is reported as over 100 µM and the TGI (HOP-62 NSCLC) is reported as 66.9 µM. The TGI (SNB-75 CNS) was 47.8 µM, the TGI (SR leukemia) was over 100 µM and the TGI (DLD-1 colon) was over 100 µM. For the same molecule, the TGI (CCRF-CEM leukemia) was over 100 µM and the TGI (DMS 114 small cell lung) was over 100 µM.
`O=C(O)CCc1c2ccc(=O)c(O)c-2oc2c(O)c(O)ccc12` showed a TGI (HL-60(TB) leukemia) of over 100 µM, a TGI (UO-31 renal) of over 100 µM and a TGI (HOP-62 NSCLC) of over 100 µM. It also gave a TGI (SNB-75 CNS) of over 100 µM, a TGI (HS 578T breast) of over 100 µM and a TGI (SR leukemia) of over 100 µM. It also gave a TGI (CCRF-CEM leukemia) of 13.8 µM and a TGI (EKVX NSCLC) of over 100 µM.
For `CC(C)n1nc(-c2ccc3oc(N)nc3c2)c2c(N)ncnc21`, the GI50 (HL-60(TB) leukemia) was 0.0869 µM and 0.168 µM, the TGI (HL-60(TB) leukemia) was 12.3 µM and 11.2 µM and the GI50 (UO-31 renal) was under 0.01 µM. For the same molecule, the TGI (UO-31 renal) was 0.0402 µM and 0.0898 µM, the GI50 (HOP-62 NSCLC) was 0.0198 µM and 0.0212 µM and the TGI (HOP-62 NSCLC) was 0.793 µM and 0.435 µM. The GI50 (SNB-75 CNS) was under 0.01 µM, the TGI (SNB-75 CNS) was 0.0532 µM and 0.0211 µM and the GI50 (HS 578T breast) was under 0.01 µM. The TGI (HS 578T breast) was 0.0323 µM and 0.0517 µM, the GI50 (SR leukemia) was 0.0284 µM and < 0.0112 µM and the TGI (SR leukemia) was 3.84 µM. The GI50 (CCRF-CEM leukemia) was 0.0265 µM and 0.0467 µM, the TGI (CCRF-CEM leukemia) was over 45.6 µM and the GI50 (EKVX NSCLC) was 0.0159 µM. The TGI (EKVX NSCLC) was 0.225 µM.
Molecule `COCCN1CCN(Cc2ccc(-c3n[nH]c4c3C(=O)c3c(NC(=O)NN5CCOCC5)cccc3-4)cc2)CC1` has a GI50 (HL-60(TB) leukemia) of 0.00888 µM, a TGI (HL-60(TB) leukemia) of 0.0453 µM and a GI50 (UO-31 renal) of 0.0916 µM. It also gave a TGI (UO-31 renal) of 9.36 µM, a GI50 (HOP-62 NSCLC) of 0.0324 µM and a TGI (HOP-62 NSCLC) of 2.94 µM. For the same molecule, the GI50 (SNB-75 CNS) was 0.0214 µM, the TGI (SNB-75 CNS) was 0.071 µM and the GI50 (HS 578T breast) was 0.0293 µM. For the same molecule, the TGI (HS 578T breast) was 1.22 µM, the GI50 (SR leukemia) was 0.00985 µM and the TGI (SR leukemia) was 0.0599 µM. It also gave a GI50 (CCRF-CEM leukemia) of 0.0211 µM and a GI50 (EKVX NSCLC) of 0.0348 µM.
With `N=C(N)c1ccc(NCCOCCNc2ccc(C(=N)N)cc2)cc1` the GI50 (HL-60(TB) leukemia) was 60.9 µM, the TGI (HL-60(TB) leukemia) was over 100 µM and the GI50 (UO-31 renal) was 47.2 µM. The TGI (UO-31 renal) was over 100 µM, the GI50 (HOP-62 NSCLC) was 33.2 µM and the TGI (HOP-62 NSCLC) was over 100 µM. For the same molecule, the GI50 (SNB-75 CNS) was 19.2 µM, the TGI (SNB-75 CNS) was 81.3 µM and the GI50 (HS 578T breast) was 52.8 µM. For the same molecule, the TGI (HS 578T breast) was over 100 µM, the GI50 (SR leukemia) was 49 µM and the TGI (SR leukemia) was over 100 µM. The GI50 (CCRF-CEM leukemia) was over 100 µM, the TGI (CCRF-CEM leukemia) was over 100 µM and the GI50 (EKVX NSCLC) was 21.7 µM. For the same molecule, the TGI (EKVX NSCLC) was over 100 µM.
Molecule `C/C(=N\NC(=S)N1CCCCCCCCCCCC1)c1ccccn1` has a TGI (HL-60(TB) leukemia) of over 100 µM, a TGI (UO-31 renal) of 1.77 µM and a TGI (HOP-62 NSCLC) of 1.36 µM. For the same molecule, the TGI (SNB-75 CNS) was 1 µM, the TGI (HS 578T breast) was 0.942 µM and the TGI (SR leukemia) was 2.28 µM. For the same molecule, the TGI (CCRF-CEM leukemia) was 1.76 µM and the TGI (EKVX NSCLC) was 0.432 µM.
With `Nc1nc(N)c2c(n1)NC(c1ccccc1)C1CCc3ccccc3C1=N2` (centres undefined) the GI50 (HL-60(TB) leukemia) was 2.37 µM, the TGI (HL-60(TB) leukemia) was 6.01 µM and the GI50 (UO-31 renal) was 2.5 µM. It also gave a TGI (UO-31 renal) of 13.7 µM, a GI50 (HOP-62 NSCLC) of 7.87 µM and a TGI (HOP-62 NSCLC) of 21.3 µM. It also gave a GI50 (SNB-75 CNS) of 7.95 µM, a TGI (SNB-75 CNS) of 20.8 µM and a GI50 (HS 578T breast) of 5.85 µM. It also gave a TGI (HS 578T breast) of 30 µM, a GI50 (SR leukemia) of 4.52 µM and a TGI (SR leukemia) of over 100 µM. It also gave a GI50 (CCRF-CEM leukemia) of 4.47 µM, a TGI (CCRF-CEM leukemia) of over 100 µM and a GI50 (EKVX NSCLC) of 2.68 µM. The TGI (EKVX NSCLC) was 15.1 µM.
